In brackets after ≈: the same amount, converted by molar mass. Activity calls are given as the source filed them. No cut-off for these calls is given here.
What was measured:
Enterococcus faecium = assay: Antibacterial activity against vancomycin- resistant Enterococcus faecium by CLSI M100-S18 method; type: functional
Listeria monocytogenes = assay: Antibacterial activity against Listeria monocytogenes by CLSI M100-S18 method; type: functional
Staphylococcus aureus [1] = assay: Antibacterial activity against ciprofloxacin-susceptible and methicillin-resistant Staphylococcus aureus by CLSI M100-S18 method; type: functional
Staphylococcus aureus [2] = assay: Antibacterial activity against non-ciprofloxacin-susceptible and methicillin-susceptible Staphylococcus aureus by CLSI M100-S18 method; type: functional
[3] = system: Staphylococcus epidermidis; assay: Antibacterial activity against ciprofloxacin-susceptible and methicillin-resistant Staphylococcus epidermidis by CLSI M100-S18 method; type: functional
[4] = system: Staphylococcus haemolyticus; assay: Antibacterial activity against Staphylococcus haemolyticus by CLSI M100-S18 method; type: functional
Staphylococcus hominis [5] = assay: Antibacterial activity against Staphylococcus hominis by CLSI M100-S18 method; type: functional
Staphylococcus warneri = assay: Antibacterial activity against Staphylococcus warneri by CLSI M100-S18 method; type: functional
Streptococcus agalactiae = assay: Antibacterial activity against Streptococcus agalactiae by CLSI M100-S18 method; type: functional
Streptococcus sp. = assay: Antibacterial activity against Lancefield Streptococcus sp. group F by CLSI M100-S18 method; type: functional
[6] = Antibacterial activity against Lancefield Streptococcus sp. 'group G' by CLSI M100-S18 method; type: functional
Streptococcus pneumoniae [7] = assay: Antibacterial activity against non-levofloxacin susceptible Streptococcus pneumoniae by CLSI M100-S18 method; type: functional
Streptococcus equinus = assay: Antibacterial activity against Streptococcus bovis by CLSI M100-S18 method; type: functional
[8] = system: Streptococcus constellatus; assay: Antibacterial activity against Streptococcus constellatus by CLSI M100-S18 method; type: functional
[9] = system: Streptococcus intermedius; assay: Antibacterial activity against Streptococcus intermedius by CLSI M100-S18 method; type: functional
Streptococcus salivarius = assay: Antibacterial activity against Streptococcus salivarius by CLSI M100-S18 method; type: functional
Streptococcus sanguinis = assay: Antibacterial activity against Streptococcus sanguinis by CLSI M100-S18 method; type: functional
[10] = system: Acinetobacter calcoaceticus; assay: Antibacterial activity against Acinetobacter calcoaceticus by CLSI M7-A7 method; type: functional
Acinetobacter lwoffii = assay: Antibacterial activity against Acinetobacter lwoffii by CLSI M7-A7 method; type: functional
Citrobacter koseri = assay: Antibacterial activity against Citrobacter koseri by CLSI M7-A7 method; type: functional
Haemophilus influenzae [11] = assay: Antibacterial activity against ciprofloxacin-susceptible Haemophilus influenzae by CLSI M7-A7 method; type: functional
Haemophilus influenzae [12] = assay: Antibacterial activity against non-ciprofloxacin-susceptible Haemophilus influenzae by CLSI M7-A7 method; type: functional
Klebsiella oxytoca = assay: Antibacterial activity against Klebsiella oxytoca by CLSI M7-A7 method; type: functional
Klebsiella pneumoniae [13] = assay: Antibacterial activity against Klebsiella pneumoniae by CLSI M7-A7 method; type: functional
Moraxella catarrhalis = assay: Antibacterial activity against Moraxella catarrhalis by CLSI M7-A7 method; type: functional
Morganella morganii = assay: Antibacterial activity against Morganella morganii by CLSI M7-A7 method; type: functional
Proteus mirabilis = assay: Antibacterial activity against Proteus mirabilis by CLSI M7-A7 method; type: functional
Proteus vulgaris = assay: Antibacterial activity against Proteus vulgaris by CLSI M7-A7 method; type: functional
Pseudomonas aeruginosa [14] = assay: Antibacterial activity against ciprofloxacin-susceptible Pseudomonas aeruginosa by CLSI M7-A7 method; type: functional
Pseudomonas aeruginosa [15] = assay: Antibacterial activity against non-ciprofloxacin-susceptible Pseudomonas aeruginosa by CLSI M7-A7 method; type: functional
Serratia marcescens [16] = assay: Antibacterial activity against Serratia marcescens by CLSI M7-A7 method; type: functional
[17] = system: Stenotrophomonas maltophilia; assay: Antibacterial activity against non-levofloxacin susceptible Stenotrophomonas maltophilia by CLSI M7-A7 method; type: functional
Staphylococcus aureus [18] = assay: Antibacterial activity against ciprofloxacin-susceptible and methicillin-resistant Staphylococcus aureus assessed as percent susceptible isolates by CLSI M100-S18 method; type: functional
[19] = system: Staphylococcus epidermidis; assay: Antibacterial activity against non-ciprofloxacin-susceptible and methicillin-susceptible Staphylococcus epidermidis assessed as percent susceptible isolates by CLSI M100-S18 method; type: functional
[20] = system: Staphylococcus haemolyticus; assay: Antibacterial activity against Staphylococcus haemolyticus assessed as percent susceptible isolates by CLSI M100-S18 method; type: functional
Staphylococcus hominis [21] = assay: Antibacterial activity against Staphylococcus hominis assessed as percent susceptible isolates by CLSI M100-S18 method; type: functional
[22] = system: Staphylococcus lugdunensis; assay: Antibacterial activity against Staphylococcus lugdunensis assessed as percent susceptible isolates by CLSI M100-S18 method; type: functional
[23] = system: Staphylococcus saprophyticus; assay: Antibacterial activity against Staphylococcus saprophyticus assessed as percent susceptible isolates by CLSI M100-S18 method; type: functional
Streptococcus pneumoniae [24] = assay: Antibacterial activity against non-levofloxacin susceptible Streptococcus pneumoniae assessed as percent susceptible isolates by CLSI M100-S18 method; type: functional
Citrobacter freundii = assay: Antibacterial activity against Citrobacter freundii assessed as percent susceptible isolates by CLSI M7-A7 method; type: functional
Enterobacter cloacae = assay: Antibacterial activity against Enterobacter cloacae assessed as percent susceptible isolates by CLSI M7-A7 method; type: functional
Haemophilus influenzae [25] = assay: Antibacterial activity against non-ciprofloxacin-susceptible Haemophilus influenzae assessed as percent susceptible isolates by CLSI M7-A7 method; type: functional
Klebsiella pneumoniae [26] = assay: Antibacterial activity against Klebsiella pneumoniae assessed as percent susceptible isolates by CLSI M7-A7 method; type: functional
Serratia marcescens [27] = assay: Antibacterial activity against levofloxacin susceptible Serratia marcescens assessed as percent susceptible isolates by CLSI M7-A7 method; type: functional
[28] = system: Stenotrophomonas maltophilia; assay: Antibacterial activity against levofloxacin-susceptible Stenotrophomonas maltophilia by CLSI M7-A7 method; type: functional
[29] = system: Staphylococcus epidermidis
[30] = system: Staphylococcus epidermidis; remark: listed apart in the source

`N[C@@H]1CCCCN(c2c(F)cc3c(=O)c(C(=O)O)cn(C4CC4)c3c2Cl)C1` [BESIFLOXACIN] gave an MIC50 (Enterococcus faecium) of 2 µg/mL (≈ 5.08 µM), an MIC90 (Enterococcus faecium) of 8 µg/mL (≈ 20.3 µM) and an MIC50 (Listeria monocytogenes) of 0.12 µg/mL (≈ 0.305 µM). The MIC90 (Listeria monocytogenes) was 0.12 µg/mL (≈ 0.305 µM), the MIC (Staphylococcus aureus [1]) was 0.015 µg/mL (≈ 0.0381 µM) and the MIC50 (Staphylococcus aureus [1]) was 0.015 µg/mL (≈ 0.0381 µM). For the same compound, the MIC90 (Staphylococcus aureus [1]) was 0.12 µg/mL (≈ 0.305 µM), the MIC50 (Staphylococcus aureus [2]) was 0.5 µg/mL (≈ 1.27 µM) and the MIC90 (Staphylococcus aureus [2]) was 4 µg/mL (≈ 10.2 µM). For the same compound, the MIC50 [3] was 0.03 µg/mL (≈ 0.0762 µM), the MIC50 [4] was 0.5 µg/mL (≈ 1.27 µM) and the MIC90 [4] was 1 µg/mL (≈ 2.54 µM). The MIC50 (Staphylococcus hominis [5]) was 0.25 µg/mL (≈ 0.635 µM), the MIC90 (Staphylococcus hominis [5]) was 1 µg/mL (≈ 2.54 µM) and the MIC50 (Staphylococcus warneri) was 0.06 µg/mL (≈ 0.152 µM). The MIC90 (Staphylococcus warneri) was 1 µg/mL (≈ 2.54 µM), the MIC50 (Streptococcus agalactiae) was 0.06 µg/mL (≈ 0.152 µM) and the MIC90 (Streptococcus agalactiae) was 0.06 µg/mL (≈ 0.152 µM). The MIC50 (Streptococcus sp.) was 0.03 µg/mL (≈ 0.0762 µM), the MIC90 (Streptococcus sp.) was 0.06 µg/mL (≈ 0.152 µM) and the MIC50 [6] was 0.03 µg/mL (≈ 0.0762 µM). The MIC90 [6] was 0.06 µg/mL (≈ 0.152 µM), the MIC50 (Streptococcus pneumoniae [7]) was 0.5 µg/mL (≈ 1.27 µM) and the MIC90 (Streptococcus pneumoniae [7]) was 0.5 µg/mL (≈ 1.27 µM). It also gave an MIC50 (Streptococcus equinus) of 0.06 µg/mL (≈ 0.152 µM), an MIC90 (Streptococcus equinus) of 0.12 µg/mL (≈ 0.305 µM) and an MIC50 [8] of 0.06 µg/mL (≈ 0.152 µM). For the same compound, the MIC90 [8] was 0.12 µg/mL (≈ 0.305 µM), the MIC50 [9] was 0.06 µg/mL (≈ 0.152 µM) and the MIC90 [9] was 0.12 µg/mL (≈ 0.305 µM). For the same compound, the MIC50 (Streptococcus salivarius) was 0.06 µg/mL (≈ 0.152 µM), the MIC90 (Streptococcus salivarius) was 0.12 µg/mL (≈ 0.305 µM) and the MIC50 (Streptococcus sanguinis) was 0.06 µg/mL (≈ 0.152 µM). For the same compound, the MIC90 (Streptococcus sanguinis) was 0.12 µg/mL (≈ 0.305 µM), the MIC50 [10] was 0.5 µg/mL (≈ 1.27 µM) and the MIC90 [10] was 16 µg/mL (≈ 40.6 µM). It also gave an MIC50 (Acinetobacter lwoffii) of 0.25 µg/mL (≈ 0.635 µM), an MIC90 (Acinetobacter lwoffii) of 16 µg/mL (≈ 40.6 µM) and an MIC50 (Citrobacter koseri) of 0.06 µg/mL (≈ 0.152 µM). The MIC90 (Citrobacter koseri) was 0.25 µg/mL (≈ 0.635 µM), the MIC50 (Haemophilus influenzae [11]) was 0.015 µg/mL (≈ 0.0381 µM) and the MIC90 (Haemophilus influenzae [11]) was 0.03 µg/mL (≈ 0.0762 µM). For the same compound, the MIC50 (Haemophilus influenzae [12]) was 2 µg/mL (≈ 5.08 µM), the MIC90 (Haemophilus influenzae [12]) was 2 µg/mL (≈ 5.08 µM) and the MIC50 (Klebsiella oxytoca) was 0.12 µg/mL (≈ 0.305 µM). For the same compound, the MIC90 (Klebsiella oxytoca) was 1 µg/mL (≈ 2.54 µM), the MIC50 (Klebsiella pneumoniae [13]) was 0.25 µg/mL (≈ 0.635 µM) and the MIC90 (Klebsiella pneumoniae [13]) was 4 µg/mL (≈ 10.2 µM). It also gave an MIC50 (Moraxella catarrhalis) of 0.03 µg/mL (≈ 0.0762 µM), an MIC90 (Moraxella catarrhalis) of 0.03 µg/mL (≈ 0.0762 µM) and an MIC50 (Morganella morganii) of 0.12 µg/mL (≈ 0.305 µM). It also gave an MIC90 (Morganella morganii) of 4 µg/mL (≈ 10.2 µM), an MIC50 (Proteus mirabilis) of 0.25 µg/mL (≈ 0.635 µM) and an MIC90 (Proteus mirabilis) of 16 µg/mL (≈ 40.6 µM). For the same compound, the MIC50 (Proteus vulgaris) was 0.12 µg/mL (≈ 0.305 µM), the MIC90 (Proteus vulgaris) was 0.25 µg/mL (≈ 0.635 µM) and the MIC50 (Pseudomonas aeruginosa [14]) was 1 µg/mL (≈ 2.54 µM). It also gave an MIC90 (Pseudomonas aeruginosa [14]) of 4 µg/mL (≈ 10.2 µM), an MIC50 (Pseudomonas aeruginosa [15]) of 16 µg/mL (≈ 40.6 µM) and an MIC90 (Pseudomonas aeruginosa [15]) of 64 µg/mL (≈ 163 µM). It also gave an MIC50 (Serratia marcescens [16]) of 0.25 µg/mL (≈ 0.635 µM), an MIC90 (Serratia marcescens [16]) of 1 µg/mL (≈ 2.54 µM) and an MIC [17] of 0.25 µg/mL (≈ 0.635 µM). For the same compound, the Activity (Staphylococcus aureus [18]) was “inactive”, the Activity [19] was “inactive” and the Activity [20] was “inactive”. For the same compound, the Activity (Staphylococcus hominis [21]) was “inactive”, the Activity [22] was “inactive” and the Activity [23] was “inactive”. For the same compound, the Activity (Streptococcus pneumoniae [24]) was “inactive”, the Activity (Citrobacter freundii) was “inactive” and the Activity (Enterobacter cloacae) was “inactive”. For the same compound, the Activity (Haemophilus influenzae [25]) was “inactive”, the Activity (Klebsiella pneumoniae [26]) was “inactive” and the Activity (Serratia marcescens [27]) was “inactive”. The MIC [28] was 1 µg/mL (≈ 2.54 µM), the MIC90 [29] was “inactive” and the MIC90 [30] was “inactive”.
